# Literature values as cited in patent publication US6461590B2, “Stabilized gas-supersaturated suspensions and methods for their delivery” (Wayne State University, priority 1996, dated 2002).
compound,measurement,value
OCC(O)CO [Glycerin],oxygen solubility,0.008 cc O2/g/atm.
